{"source": "patent US9394520B2", "about": "“Expansion of hematopoietic stem cells” (University of Rochester, priority 2006, dated 2016)", "key": {"Jagged1": {"tested_on": "Jagged1", "experiment": "Jagged1 protein by Western blot in UMR106 cells", "assay_type": "cell-based", "details": "UMR106 cells after treatment with PGE2, Western blot, antibody C-20", "experimental": "UMR 106 cells were serum starved for 24 hours and then treated with a single dose of vehicle (controls) or PGE2 at a concentration of 10^-7 M. RNA was collected from both control and treated samples to assess the fold change in Jagged1 mRNA by real time RT-PCR analysis corrected for by beta-actin. FIG. 1B is a Western blot showing total protein that was collected from both control and treated samples exposed to Jagged1 antibody, C20. Positive control (+ctr) was provided by HS27a cells, a human stromal cell line with high levels of Jagged1 protein, while HS5 cells from a human stromal cell line with minimal Jagged1 levels were used as a negative control. FIG. 2A is a graph showing that inhibition of PKA blocks PGE2-dependent increase of Jagged1 in UMR 106 cells. UMR106 cells were serum starved for 24 hours. They were pre-treated with H89 for 30 minutes followed by a single dose of PGE2 at 10^-7 M or vehicle. RNA was collected from both control and treated samples to assess the fold change in Jagged1 RNA by real time RT-PCR analysis corrected for by β-actin. […] UMR106 cells were serum starved for 24 hours. […] Total RNA was extracted and analyzed by real time RT-PCR, normalizing for β-actin expression and t=0. Total protein was analyzed by Western blots performed using the […] system (Invitrogen, Carlsbad, Calif.). […]"}, "HES1": {"tested_on": "HES1", "experiment": "Notch target gene HES1 expression by real time RT-PCR", "assay_type": "cell-based", "details": "UMR 206 cells, PGE2 treatment, starting at 24 hours", "experimental": "FIG. 3 is a graph showing that PGE2 treatment in UMR 206 cells increased expression of the Notch target gene HES1 as determined by real time RT-PCR analysis starting at 24 hours.\nAt the designated times, total RNA and protein were harvested. Total RNA was extracted and analyzed by real time RT-PCR, normalizing for β-actin expression and t=0. Total protein was analyzed by Western blots performed using the XCELL SURELOCK™ system (Invitrogen, Carlsbad, Calif.). Blots were probed with Jag1 c-20 antibody (Santa Cruz Biotechnology, Inc., Santa Cruz, Calif.), and the loading control was B-actin."}, "[1]": {"tested_on": "intermediate progenitors of hematopoietic stem cells", "experiment": "Colony forming unit-cell (CFU-C) assay of bone marrow mononuclear cells from treated mice", "assay_type": "in vivo", "description": "(§1) FIG. 8 is a graph showing that intermediate progenitors of hematopoietic stem cells are not increased by PGE2 treatment. Therefore, PGE2 specifically increases HSCs. The bone marrow mononuclear cells from mice treated with vehicle and PGE2 using colony forming unit-cell (CF-C) activity in vitro. […] Peripheral white blood cell and hematocrit levels were not changed in PGE2 vs. vehicle treated mice at 16 days (WBC counts: vehicle averaged 5.75±0.20×10^3/μl; PGE2 averaged 4.72±0.61×10^3/μl) (Hematocrit: vehicle averaged 42±1%; PGE2 averaged 43±2%) (n=6 for each treatment group).\n(§2) FIG. 8 is a graph showing that intermediate progenitors of hematopoietic stem cells are not increased by PGE2 treatment. Therefore, PGE2 specifically increases HSCs. The bone marrow mononuclear cells from mice were treated with vehicle and PGE2 to determine if there was an increase in intermediate progenitors in response to PGE2 using the colony forming unit-cell (CFU-C) assay. […] In addition, peripheral white blood cell and hematocrit levels were not changed in PGE2 vs. vehicle treated mice at 16 days (WBC counts: vehicle averaged 5.75±0.20×10^3/μl; PGE2 averaged 4.72±0.61×10^3/μl) (Hematocrit: vehicle averaged 42±1%; PGE2 averaged 43±2%) (n=6 for each treatment group).\nThe opposite limb of the same mice was used for flow cytometric analysis, in vitro progenitor CFU-C assays and competitive repopulation. […]"}, "[2]": {"design": "species or system mice", "details": "mouse, in vivo", "description": "as §1, §2"}}, "data": [{"smiles": "CCCCC[C@H](O)/C=C/[C@H]1[C@H](O)CC(=O)[C@@H]1C/C=C\\CCCC(=O)O", "note": "[PGE2, Prostaglandin E2]", "values": [{"measurement": "Jagged1 protein", "setting": "Jagged1", "value": "increased"}, {"measurement": "expression of the Notch target gene HES1", "setting": "HES1", "value": "increased"}, {"measurement": "CFU-C frequency", "setting": "[1]; BMMC from C57Bl/6 mice treated 16 days, Example 2", "value": "No evidence of PGE2 effects"}, {"measurement": "CFU-C frequency", "setting": "[1]; BMMC from treated mice, Example 1", "value": "did not increase"}, {"measurement": "Hematocrit", "setting": "[2]", "value": "43±2", "unit": "%"}, {"measurement": "peripheral platelets", "setting": "[2]", "value": "not changed"}]}]}
